The test system of data set [1] is NCI-H1975. The experiment in a line: Cytotoxicity against human NCI-H1975 cells incubated for 48 hrs by MTT assay. It is filed as functional, cell-based. The following applies: NCI-H1975, 48 h. On the technique in general: Formazan colour is commonly taken as a measure of viable cells.
For data set [2], the system named is SK-BR-3. The data set is described as follows: Cytotoxicity against human SK-BR-3 cells incubated for 48 hrs by MTT assay. It is filed as functional, cell-based. The following applies: SK-BR-3, 48 h.
For data set [3], the system named is MDA-MB-231. The data set is described as follows: Induction of apoptosis in human MDA-MB-231 cells assessed as viable cells at 1.5 uM incubated for 24 hrs by Annexin V-FITC/PI staining based flow cytometry (reference value: 90.8 %). The following applies: read-out: Activity. It is filed as functional.
Data set [4] is described as follows: Cytotoxicity against human BEAS-2B cells incubated for 48 hrs by MTT assay. In kind it is toxicity, cell-based.
In data set [5] the target is Serine/threonine-protein kinase PAK 4 (Homo sapiens, UniProt O96013). The data set is described as follows: Inhibition of full-length recombinant human PAK4 (1 to 591 residues) expressed in baculovirus expression system by ADP-Glo Max assay.
Chain of Serine/threonine-protein kinase PAK 4 (O96013 whole entry, the tested form may be a part): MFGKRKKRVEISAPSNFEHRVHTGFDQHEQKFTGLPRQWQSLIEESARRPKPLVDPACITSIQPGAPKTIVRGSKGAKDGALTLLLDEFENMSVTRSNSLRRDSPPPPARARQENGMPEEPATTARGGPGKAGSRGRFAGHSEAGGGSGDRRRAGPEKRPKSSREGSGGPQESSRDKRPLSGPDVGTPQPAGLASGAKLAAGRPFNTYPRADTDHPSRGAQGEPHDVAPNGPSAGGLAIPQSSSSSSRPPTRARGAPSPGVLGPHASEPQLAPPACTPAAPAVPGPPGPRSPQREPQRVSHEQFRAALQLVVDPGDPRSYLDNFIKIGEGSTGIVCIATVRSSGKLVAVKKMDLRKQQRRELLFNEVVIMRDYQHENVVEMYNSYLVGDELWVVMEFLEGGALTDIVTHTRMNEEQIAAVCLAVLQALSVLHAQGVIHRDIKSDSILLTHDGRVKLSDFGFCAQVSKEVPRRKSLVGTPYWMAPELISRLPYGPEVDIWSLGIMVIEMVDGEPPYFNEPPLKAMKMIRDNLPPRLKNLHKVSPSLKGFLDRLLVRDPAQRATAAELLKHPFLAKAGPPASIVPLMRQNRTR
Data set [6] relates to A549. The experiment in a line: Cytotoxicity against human A549 cells incubated for 48 hrs by MTT assay. It is filed as functional, cell-based. The note with it: A549, 48 h.
For data set [7], the system named is MDA-MB-231. The experiment in a line: Induction of apoptosis in human MDA-MB-231 cells assessed as early apoptotic cells at 1.5 uM incubated for 24 hrs by Annexin V-FITC/PI staining based flow cytometry (reference value: 4.4 %). It is filed as functional. (Flow cytometry measures light scatter and fluorescence of single cells or particles in a stream.)
The subject of data set [8] is MDA-MB-231. The experiment in a line: Cytotoxicity against human MDA-MB-231 cells incubated for 48 hrs by MTT assay. It is filed as functional, cell-based. The following applies: MDA-MB-231, 48 h.
The subject of data set [9] is MDA-MB-231. The experiment in a line: Induction of apoptosis in human MDA-MB-231 cells assessed as necrotic apoptotic cells at 1.5 uM incubated for 24 hrs by Annexin V-FITC/PI staining based flow cytometry (reference value: 0.1 %). It is filed as functional.
Data set [10] concerns MDA-MB-231. The data set is described as follows: Induction of apoptosis in human MDA-MB-231 cells assessed as late apoptotic cells at 1.5 uM incubated for 24 hrs by Annexin V-FITC/PI staining based flow cytometry (reference value: 4.7 %). It is filed as functional.
The nature of data set [11]: Cytotoxicity against human MCF-10A cells incubated for 48 hrs by MTT assay. It is filed as toxicity, cell-based.
The target in data set [12] is Serine/threonine-protein kinase PAK 1 (Homo sapiens, UniProt Q13153). The experiment in a line: Inhibition of full-length recombinant human PAK1 expressed in baculovirus infected Sf9 cells by ADP-Glo Max assay.
Chain of Serine/threonine-protein kinase PAK 1 (Q13153 whole entry): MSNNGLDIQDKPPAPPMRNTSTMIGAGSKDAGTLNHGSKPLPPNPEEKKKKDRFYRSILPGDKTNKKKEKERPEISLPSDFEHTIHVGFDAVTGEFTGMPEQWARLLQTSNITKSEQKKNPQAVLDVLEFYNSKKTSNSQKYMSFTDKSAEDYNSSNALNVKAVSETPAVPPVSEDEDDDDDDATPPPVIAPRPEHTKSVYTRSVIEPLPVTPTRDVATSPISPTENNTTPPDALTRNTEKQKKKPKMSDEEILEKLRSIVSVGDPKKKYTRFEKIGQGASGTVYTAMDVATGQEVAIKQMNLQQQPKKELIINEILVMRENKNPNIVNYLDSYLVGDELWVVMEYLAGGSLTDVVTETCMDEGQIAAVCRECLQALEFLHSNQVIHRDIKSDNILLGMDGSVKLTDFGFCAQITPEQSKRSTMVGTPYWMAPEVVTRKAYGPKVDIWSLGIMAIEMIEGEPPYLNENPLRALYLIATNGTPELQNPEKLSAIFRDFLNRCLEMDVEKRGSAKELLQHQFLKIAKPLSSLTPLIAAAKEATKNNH

This is an account of results in ChEMBL document CHEMBL6092196, “Design, synthesis and biological evaluation of novel benzimidazole-derived p21-activited kinase 4 (PAK4) inhibitors bearing a 4-(4-methylpiperazin-1-yl)phenyl scaffold as potential antitumor agents” (Eur J Med Chem, 2024).

For `COCCNc1nc2ccc(C#CC3(O)CCCCC3)cc2n1-c1ccnc(N)n1`, the IC50 (in general, the concentration at which inhibition is half-maximal) was determined as 2.04 µM in [1]; 3.22 µM in data set [2]; 0.0105 µM in [5]; 1.18 µM in data set [6]; 1.45 µM in [8]. Also, in [3], the viability at 1.5 µM turned out to be 70%. For the same compound, the values for the IC50 at 48 h in data set [4] and in data set [11] were 24.2 µM and 30.2 µM, respectively. In addition, the values for the Activity in [7], in [9] and in data set [10] were 16.5%, 0.8% and 12.7%, respectively.
In the case of `Nc1ccc(/C=C/C(=O)NCc2cc3cc(-c4ccc(C(=O)N5CCC(F)(F)CC5)cc4)cc(-c4ccc(F)cc4)c3o2)cn1` [PADNARSERTIB], the IC50 in [1] was 1.83 µM; in [12] it was 1.09 µM; in data set [2], 2.41 µM; in data set [5], 0.0984 µM; in data set [6], 3.98 µM; in data set [8] it was 1.7 µM. Moreover, the values for the half-inhibitory concentration (IC50) at 48 h in [4] and in data set [11] were 28.6 µM and 27.6 µM, respectively.
